Source: patent publication US10406120B2, “Methods and compositions for treating kidney disorders” (Golden Biotechnology Corporation, priority 2013, dated 2019)

What was measured:
[1] = FSGS model: urine protein and renal function (BUN, Cr); type: in vivo, BALB/c mice; details: FSGS mice
Protocol: (§1) Experiments described herein were performed on 8-week-old female BALB/c mice. The FSGS mice were injected intravenously with a single dose of adriamycin (0.1 mg/10 g body weight). The mice were given Compound 1 six hours before adriamycin injection by gavage daily till sacrifice. BALB/c mice intraperitoneal injected with normal saline were used as normal controls, while ASLN mice given vehicle (corn oil) by gavage were used as disease controls. Mice were killed at day 7, 14, or 21 after disease induction, and spleen, renal cortical tissue, and blood samples collected and stored appropriately until analysis. All animal experiments were performed with the ethical approval of the Institutional Animal Care and Use Committee of The National Defense Medical Center, Taiwan and performed according to the ethical rules in the NIH Guide for the Care and Use of Laboratory Animals.
Urine samples were collected in metabolic cages at day 3, 7, 14, and 21, and urine protein was determined as described previously. (Shui, et al., Nephrol Dial Transplant, 21: 1794-1802, 2006) Serum samples were collected at day 7, 14, or 21 when mice were sacrificed to measure serum levels of BUN and Cr.

IL-6 = assay: FSGS model: renal IL-6 (IHC); type: in vivo, BALB/c mice; details: FSGS mice, vs control FSGS mice
Protocol: as §1, with “All animal experiments were performed with the ethical approval of the Institutional Animal Care and Use Committee of The National Defense Medical Center, Taiwan and performed according to the ethical rules in the NIH Guide for the Care and Use of Laboratory Animals.” left out
For IHC, formalin-fixed and paraffin-embedded renal sections were prepared and incubated with primary antibodies against mouse Desmin (Lab Vision, CA, USA), CD3 (pan-T cell; Serotec, N.C., USA), F4/80 (monocytes/macrophages; Serotec), IL-6 (R&D Systems, MN, USA), NF-κB p65 (Cell Signaling Technology, MA, USA), collagen I, III, and IV (Southern Biotech, AL, USA), or TGF-β1 (Santa Cruz Biotechnology, CA, USA), biotinylated second antibodies (Dako, Glostrup, Denmark), and avidin-biotin-peroxidase complex (Dako). Semi-quantitative evaluation of staining was performed.

[2] = AcP-IgAN model: urine protein and renal function (BUN, Cr); type: in vivo, B cell-deficient mice; details: AcP-IgAN mice
Protocol: (§2) B cell-deficient mice (B6.129S2-Igh-6tm1Cgn/J) were obtained from the Academia Sinica (Professor John T. Kung, Institute of Molecular Biology), and maintained at the animal center of the National Defense Medical Center, Taipei, Taiwan. AcP-IgAN was induced in the mice by daily injection of purified IgA anti-phosphorylcholine antibodies and pneumococcal C-polysaccharide (PnC) as described previously (Chao, et al., Kidney Int. 70:283-297; 2006). All animal experiments were performed with the approval of the Institutional Animal Care and Use Committee of The National Defense Medical Center, Taiwan, and were consistent with the NIH Guide for the Care and Use of Laboratory Animals.
Body weight of the mice was measured weekly. Urine samples were collected in metabolic cages weekly, and urine protein determined followed the know methods (Chao, et al., Kidney Int. 70:283-297; 2006). Serum samples were collected at day 3 and day 28 to measure serum levels of blood urea nitrogen (BUN) and creatinine (Cr).

TGF-β1 = assay: AcP-IgAN model: renal TGF-β1 mRNA and protein; type: in vivo, B cell-deficient mice; details: AcP-IgAN mice
Protocol: as §2
(§3) For IHC, formalin fixed and paraffin embedded tissue sections or frozen sections were incubated with against IL-6 (R&D Systems, MN), MCP-1 (Santa Cruz, Calif.), F4/80 (monocytes/macrophages; Serotec, N.C.), collagen IV (Southern Biotech, AL), TGF-β1 (Santa Cruz), phopsho-NFκB p65 (Cell Signaling, MA), CD3 (pan-T cell; Serotec), CD4 (T helper cell; BioLegend, CA), CD8 (cytotoxic T cell), CD11b (macrophages/neutrophils), or CD11c (dendritic cells) (BD Biosciences, CA) antibodies. The FITC-conjugated, Alexa Fluor 488-conjugated (Invitrogen, CA) or horseradish peroxidase (HRP) conjugated secondary antibodies (DAKO, Denmark) were then applied to the sections. Hematoxylin or 4′,6-diamidino-2-phenylindole (DAKO) was used in the counter staining for nuclei.
(§4) Total cortical kidney RNA was extracted with TriZOL reagents (Invitrogen) from cortical tissue of the kidney. For first-strand cDNA synthesis, 1.5 μg of total RNA was used in a single-round reverse transcriptase reaction. The reaction mixture consisted of 0.9 μl of Oligo (dT) 12 to 18 primer, 1.0 mM deoxyribonucleotide triphosphate (dNTP), 1 μl first strand buffer, 0.4 mM dithiothreitol, 80 U of RNaseout recombinant ribonuclease inhibitor, and 300 U of superscript II RNase H (Invitrogen). Real-time PCR was performed on an ABI Prism 7700 Sequence Detection System (Applied Biosystems, CA). […]

MCP-1 [3] = assay: AcP-IgAN model: serum MCP-1 ELISA; type: in vivo, B cell-deficient mice; details: AcP-IgAN mice, day 3 until day 28, vs control AcP-IgAN mice; only baseline levels
Protocol: as §2
Serum levels of IL-1β (eBiosceience, CA), IL-6 (eBiosceience), IL-18 (MBL, Japan), and MCP-1 (eBiosceience) were measured using commercial ELISA kits according to the manufacturer's instructions.

MCP-1 [4] = assay: AcP-IgAN model: renal MCP-1 mRNA and protein; type: in vivo, B cell-deficient mice; details: AcP-IgAN mice
Protocol: as §2, §3, §4

[5] = 50 mg/kg by gavage daily, day 14 to day 21, vs control FSGS mice
[6] = day 7, among normal control, control FSGS and FSGS+Antroq mice
[7] = day 3, between control AcP-IgAN, AcP-IgAN+Antroq and normal control mice
[8] = day 28, vs control AcP-IgAN mice

COC1=C(OC)[C@H](O)[C@H](C/C=C(\C)CC/C=C(\C)CCC=C(C)C)[C@@H](C)C1=O [Compound 1, Antroquinonol]
urine protein levels ([1]; 50 mg/kg by gavage daily, day 7 to day 21, vs control FSGS mice (vehicle)): greatly suppressed
serum levels of blood urea nitrogen (BUN) [1, 5]: much better renal function
serum levels of creatinine (Cr) [1, 5]: much better renal function
serum levels of BUN [1, 6]: no significant difference
serum levels of Cr [1, 6]: no significant difference
renal protein expression levels of IL-6 (IHC) (IL-6): significantly reduced
urine protein levels ([2]; 50 mg/kg, day 7 to day 28, vs control AcP-IgAN mice (vehicle)): greatly suppressed
proteinuria ([2]; compared to normal controls): mild proteinuria
serum levels of BUN [2, 7]: no significant difference
serum levels of Cr [2, 7]: no significant difference
serum levels of BUN [2, 8]: much better renal function
serum levels of creatinine [2, 8]: much better renal function
renal mRNA levels of TGF-β1 (TGF-β1; day 3): basal mRNA levels
TGF-beta protein levels in kidney (IHC) (TGF-β1; [8]): substantially inhibited
renal mRNA expression of TGF-β1 (TGF-β1; [8]): greatly inhibited
serum levels of MCP-1 (elevation) (MCP-1 [3]): greatly inhibited
renal expression levels of mRNA and protein of MCP-1 (MCP-1 [4]; day 3): no such effect
renal expression levels of mRNA of MCP-1 (MCP-1 [4]; [8]): significantly reduced
renal expression levels of protein of MCP-1 (MCP-1 [4]; [8]): significantly reduced
